In the supplement of paper PMC10307832 one finds relative viability data, which are given here for one cell line.

Experiment in all cases: relative viability (nuclei count vs DMSO), 5 days (fraction); higher = more cells survive
Compound in assay [1]: C1CC2=C(C1)C=C(C=C2)OC3=NC(=C4C(=N3)N(C=N4)CC5=CC=C(C=C5)C6=CC=CC=C6)N[C@@H](CC7=CC=CC=C7)CO [QS11] + N=C(N)NC(=N)NCCc1ccccc1 [Phenformin] (partner 250 µM)
The procedure, abridged:
(§1)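 Cells from lung cancer lines were seeded into 1536-well plates and, one day later, dosed by pin tool. Treatments were either a single drug or a fixed dose of an anchor drug with five library-drug doses (not always all listed) in √10 steps. After 5 days, nuclei were stained in a one-step fixation (final 0.05% Triton X-100, 1% formaldehyde, 1 ug/ml Hoechst) and counted on 4× images, and relative viability is the treated-to-vehicle nuclei ratio, as the median of duplicate plates.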

Compound in assay [2]: CC1=C(C=C(C=C1)NC(=O)C2=CC(=CC=C2)C(C)(C)C#N)NC3=CC4=C(C=C3)N=CN(C4=O)C [AZ628] + CC(C)C[C@H](NC(=O)[C@H](Cc1ccccc1)NC(=O)c1cnccn1)B(O)O [Bortezomib] (partner 0.002 µM)
The procedure, abridged: as §1

Compound in assay [3]: CC1=C(C=C(C=C1)NC(=O)C2=CC(=CC=C2)C(C)(C)C#N)NC3=CC4=C(C=C3)N=CN(C4=O)C [AZ628] + Cc1nc(Nc2ncc(C(=O)Nc3c(C)cccc3Cl)s2)cc(N2CCN(CCO)CC2)n1 [Dasatinib] (partner 0.075 µM)
The procedure, abridged: as §1

Compound in assay [4]: C[As](C)SC[C@H](NC(=O)CC[C@H](N)C(=O)O)C(=O)NCC(=O)O [Darinaparsin] + Cc1nc(Nc2ncc(C(=O)Nc3c(C)cccc3Cl)s2)cc(N2CCN(CCO)CC2)n1 [Dasatinib] (partner 0.075 µM)
Summed up: as §1

As for LCLC-97TM1, the relative viability in assay [1] (first compound 0.08 µM) came to 0.371; in assay [1] (first compound 0.253 µM), 0.431; in assay [1] (first compound 2.53 µM) it was 0.354; in assay [1] (first compound 8 µM), 0.294; in assay [2] (first compound 0.08 µM), 0.643; in assay [2] (first compound 0.253 µM) it was 0.381. Also, the relative viability in assay [2] (first compound 0.8 µM) was determined as 0.199; in assay [2] (first compound 2.53 µM), 0.522; in assay [2] (first compound 8 µM), 0.108; in assay [3] (first compound 0.08 µM), 0.769; in assay [3] (first compound 0.253 µM) it was 0.791; in assay [3] (first compound 0.8 µM), 0.508. Further, the relative viability in assay [3] (first compound 2.53 µM) is 0.477; in assay [3] (first compound 8 µM), 0.168; in assay [4] (first compound 0.08 µM), 0.922; in assay [4] (first compound 0.8 µM), 0.664; in assay [4] (first compound 2.53 µM), 0.615; in assay [4] (first compound 8 µM), 0.98.
